Source: the supplement of paper PMC10307832

Compound: O=C(NC1CCNCC1)c1n[nH]cc1NC(=O)c1c(Cl)cccc1Cl [AT-7519] + C[C@@H](Oc1cc(-c2cnn(C3CCNCC3)c2)cnc1N)c1c(Cl)ccc(F)c1Cl [Crizotinib] (partner 1 µM)
Experiment: relative viability (nuclei count vs DMSO), 5 days (fraction); higher = more cells survive
Details: first compound 0.01 µM
Summary of the method: (§1)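 Lung cancer cell lines in 1536-well plates were dosed by pin tool the day after seeding, either with one drug alone or with a fixed anchor-drug dose plus five library-drug doses (not always all listed) in √10 steps. After 5 days, cells were fixed and their nuclei stained in one step (final 0.05% Triton X-100, 1% formaldehyde, 1 ug/ml Hoechst), then counted on 4× images. Relative viability is the nuclei count in treated wells divided by that in vehicle wells. Values are medians of duplicate plates.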

Cell Line	relative viability
NCI-H1975	1.09
RERF-LC-KJ	0.802
NCI-H650	0.788
PC-3 [JPC-3]	1.09

Same assay, conditions: first compound 0.03162 µM

Cell Line	relative viability
NCI-H1975	0.973
RERF-LC-KJ	0.738
NCI-H650	0.797
PC-3 [JPC-3]	0.99

Same assay, conditions: first compound 0.3162 µM

Cell Line	relative viability
NCI-H1975	0.877
RERF-LC-KJ	0.963
NCI-H650	0.733
PC-3 [JPC-3]	0.962

Same assay, conditions: first compound 1 µM

Cell Line	relative viability
NCI-H1975	0.206
RERF-LC-KJ	0.806
NCI-H650	0.625
PC-3 [JPC-3]	0.95

Compound: C1=CC2=C(C=C(C(=C2N=C1)O)N=NC3=CC4=C(C=C3)C=C(C=C4)S(=O)(=O)O)S(=O)(=O)O + Nc1ncn([C@H]2C[C@H](O)[C@@H](CO)O2)c(=O)n1 [Decitabine] (partner 2 µM)
Experiment: as above
Details: first compound 0.08 µM
Summary of the method: as §1

Cell Line	relative viability
NCI-H1975	0.462
RERF-LC-KJ	0.654
NCI-H650	0.324
PC-3 [JPC-3]	0.843

Same assay, conditions: first compound 0.253 µM

Cell Line	relative viability
NCI-H1975	0.393
RERF-LC-KJ	0.684
NCI-H650	0.354
PC-3 [JPC-3]	0.793

Same assay, conditions: first compound 0.8 µM

Cell Line	relative viability
NCI-H1975	0.405
RERF-LC-KJ	0.637
NCI-H650	0.329
PC-3 [JPC-3]	0.833

Same assay, conditions: first compound 2.53 µM

Cell Line	relative viability
NCI-H1975	0.384
RERF-LC-KJ	0.761
NCI-H650	0.317
PC-3 [JPC-3]	0.883

Same assay, conditions: first compound 8 µM

Cell Line	relative viability
NCI-H1975	0.408
RERF-LC-KJ	0.631
NCI-H650	0.31
PC-3 [JPC-3]	0.814

Compound: C1=CC2=C(C=C(C(=C2N=C1)O)N=NC3=CC4=C(C=C3)C=C(C=C4)S(=O)(=O)O)S(=O)(=O)O + CC(C)C[C@H](NC(=O)[C@H](Cc1ccccc1)NC(=O)c1cnccn1)B(O)O [Bortezomib] (partner 0.002 µM)
Experiment: as above
Details: first compound 0.08 µM
Summary of the method: as §1

Cell Line	relative viability
NCI-H1975	0.389
RERF-LC-KJ	1.39
NCI-H650	0.782
PC-3 [JPC-3]	0.908

Same assay, conditions: first compound 0.253 µM

Cell Line	relative viability
NCI-H1975	0.385
RERF-LC-KJ	1.1
NCI-H650	0.748
PC-3 [JPC-3]	0.849

Same assay, conditions: first compound 0.8 µM

Cell Line	relative viability
NCI-H1975	0.377
RERF-LC-KJ	1.08
NCI-H650	0.94
PC-3 [JPC-3]	0.768

Same assay, conditions: first compound 2.53 µM

Cell Line	relative viability
NCI-H1975	0.327
RERF-LC-KJ	1.2
NCI-H650	0.758
PC-3 [JPC-3]	0.794

Same assay, conditions: first compound 8 µM

Cell Line	relative viability
NCI-H1975	0.42
RERF-LC-KJ	1.14
NCI-H650	0.614
PC-3 [JPC-3]	0.851

Compound: C1=CC2=C(C=C(C(=C2N=C1)O)N=NC3=CC4=C(C=C3)C=C(C=C4)S(=O)(=O)O)S(=O)(=O)O + CC(=O)Nc1cccc(-n2c(=O)n(C3CC3)c(=O)c3c(Nc4ccc(I)cc4F)n(C)c(=O)c(C)c32)c1 [Trametinib] (partner 0.02 µM)
Experiment: as above
Details: first compound 0.08 µM
Summary of the method: as §1

Cell Line	relative viability
NCI-H1975	0.382
RERF-LC-KJ	0.935
NCI-H650	0.947
PC-3 [JPC-3]	0.78

Same assay, conditions: first compound 0.253 µM

Cell Line	relative viability
NCI-H1975	0.332
RERF-LC-KJ	0.864
NCI-H650	0.947
PC-3 [JPC-3]	0.725

Same assay, conditions: first compound 0.8 µM

Cell Line	relative viability
NCI-H1975	0.381
RERF-LC-KJ	0.849
NCI-H650	0.875
PC-3 [JPC-3]	0.737

Same assay, conditions: first compound 2.53 µM

Cell Line	relative viability
NCI-H1975	0.292
RERF-LC-KJ	0.96
NCI-H650	0.948
PC-3 [JPC-3]	0.735

Same assay, conditions: first compound 8 µM

Cell Line	relative viability
NCI-H1975	0.585
RERF-LC-KJ	0.644
NCI-H650	0.894
PC-3 [JPC-3]	0.644
